Experimental data taken from US20080274121A1, “Inhibition of Angiogenesis by Mithramycin” (priority 2007, published 2008).

Columns and labels:
Type in all cases: in vivo, nude mice
[1] = system: PANC-1 cells; experiment: PANC-1 cells injected into the pancreas, survival and metastasis; conditions: BVZ 25 μg, MIT 0.10 mg/kg, or B+M; compared with PBS
Method: FIG. 12. Prolonged survival of mice that received treatment with BVZ and MIT in xenograft models of human pancreatic cancer. PANC-1 cells were injected into the pancreas of nude mice (17 to 20 mice/group). The mice received treatment as described in FIG. 2. The entire experiment was terminated 120 days after tumor-cell injection. A, animal survival was monitored daily until termination of the experiment. Cum, cumulative. B, tumor growth in the pancreas and metastasis in the liver and/or other organs were evaluated and expressed as the incidence (%).
Statistical analysis. Each experiment was performed independently at least twice with similar results; one representative experiment is presented. The significance of the in vitro data was determined using Student's t-test (two-tailed), whereas the significance of the in vivo data was determined using the two-tailed Mann-Whitney U test. For the in vivo experiments, overall survival was calculated by the method of Kaplan and Meier. Log rank test was used to compare the survival duration between groups. P≦0.05 was deemed significant.
Prolonged survival of xenograft models of human pancreatic cancer that received treatment with BVZ and MIT.

[2] = system: PANC-1 cells; experiment: PANC-1 subcutaneous xenograft, tumor volume and body weight; conditions: BVZ 25 μg, MIT 0.10 mg/kg, or B+M
Method: FIG. 11. Synergistic antitumor effects of treatment with BVZ and MIT in xenograft models of human pancreatic cancer. […] C, representative tumor sizes in each group of BxPC3 model mice.
Next, we performed experiments using both BxPC3 and PANC-1 tumor cell models in which we administered PBS, BVZ (25 μg), MIT (0.10 mg/kg), or B+M to a group of nude mice.

[3] = system: Sp1, VEGF, EGFR, PDGFA, CD31 (MVD); experiment: Gene expression and MVD in H727 tumor tissues
Method: FIG. 20. Upregulation of Sp1 and VEGF expression by treatment with BVZ and its reversal by treatment with MIT. The tumor tissues described in FIG. 4 were collected and processed as described in Materials and Methods. A. Frozen sections made from the tumors were used CD31 staining and MVD assessment. Representative photos of the stains are shown. B. Total protein lysates were harvested from tumor tissues, and the expression levels of Sp1, VEGF, EGFR and PDGFA protein were determined using Western blot analyses. Equal protein-sample loading was monitored by probing the same membrane filter with an anti-GAPDH antibody. C. The expression levels of Sp1, VEGF, EGFR and PDGFA were further determined by calculating the ratios between those genes and GAPDH.
Western blot analysis. Whole-cell lysates were prepared from human LGNET cell lines and tissues (21). Standard Western blotting was performed using polyclonal rabbit antibodies against human and mouse Sp1, VEGF, EGFR and PDGFA (Santa Cruz Biotechnology, Santa Cruz, Calif.) and the anti-rabbit IgG antibody, a horseradish peroxidase-linked F(ab′)2 fragment obtained from a donkey (Amersham, Arlington Heights, Ill.). Equal protein-sample loading was monitored by probing the same membrane filter with an antibody against glyceraldehyde-3-phosphate dehydrogenase (GAPDH) (21). The probe proteins were detected using the Amersham enhanced chemiluminescence system according to the manufacturer's instructions.
Immunohistochemical analysis and quantification of tumor MVD. For CD31 staining, frozen tissue sections (5 μm thick) were fixed in acetone. Endogenous peroxidase in the specimens was blocked using 3% hydrogen peroxide in phosphate-buffered saline (PBS) for 12 minutes. […] For quantification of tumor MVD, vessels on each section were counted in five high-power fields (magnification, ×200 [×20 objective and ×10 ocular]) as described previously (40). […]

bevacizumab [BVZ]
animal survival [1]: slightly increased survival rate
antitumor activity at low dose [2]: marginal antitumor activity
expression of PDGFA, VEGF, and EGFR in H727 tumor tissue ([3]; combination study (FIGS. 20B and 20C), Western blot): upregulated the expression of other proangiogenic molecules
Sp1 expression in H727 tumor tissue ([3]; combination study: PBS, BVZ, MIT, or B+M (FIG. 20)): increased expression of Sp1
MVD ([3]; combination study: low-dose BVZ or MIT alone (FIG. 20)): did not significantly reduce MVD
